Reference: the supplement of paper PMC13380429

What was measured:
Conditions in all cases: 72 h
Vero E6 [1] = assay: drug sensitivity score (DSS) for viability; higher = more toxic; extreme values may be limits of the assay
U2OS [2] = assay: as above
HepG2 [3] = assay: as above
Calu-3 [4] = assay: as above
Caco-2 [5] = assay: as above
Vero E6 [6] = assay: relative viability EC50 (midpoint between 100% and the lowest measured viability); higher = less toxic
U2OS [7] = assay: as above
HepG2 [8] = assay: as above
Calu-3 [9] = assay: as above
Caco-2 [10] = assay: as above
Vero E6 [11] = assay: cell viability relative to DMSO; higher = less toxic
U2OS [12] = assay: as above
HepG2 [13] = assay: as above
Calu-3 [14] = assay: as above
Caco-2 [15] = assay: as above

Row | Structure (SMILES) | drug sensitivity score (Vero E6 [1]) | drug sensitivity score (U2OS [2]) | drug sensitivity score (HepG2 [3]) | drug sensitivity score (Calu-3 [4]) | drug sensitivity score (Caco-2 [5]) | relative viability EC50 (Vero E6 [6]) | relative viability EC50 (U2OS [7]) | relative viability EC50 (HepG2 [8]) | relative viability EC50 (Calu-3 [9]) | relative viability EC50 (Caco-2 [10]) | cell viability (Vero E6 [11]; 1 nM) | cell viability (Vero E6 [11]; 10 nM) | cell viability (Vero E6 [11]; 100 nM) | cell viability (Vero E6 [11]; 1000 nM) | cell viability (Vero E6 [11]; 10000 nM) | cell viability (U2OS [12]; 1 nM) | cell viability (U2OS [12]; 10 nM) | cell viability (U2OS [12]; 100 nM) | cell viability (U2OS [12]; 1000 nM) | cell viability (U2OS [12]; 10000 nM) | cell viability (HepG2 [13]; 1 nM) | cell viability (HepG2 [13]; 10 nM) | cell viability (HepG2 [13]; 100 nM) | cell viability (HepG2 [13]; 1000 nM) | cell viability (HepG2 [13]; 10000 nM) | cell viability (Calu-3 [14]; 1 nM) | cell viability (Calu-3 [14]; 10 nM) | cell viability (Calu-3 [14]; 100 nM) | cell viability (Calu-3 [14]; 1000 nM) | cell viability (Calu-3 [14]; 10000 nM) | cell viability (Caco-2 [15]; 1 nM) | cell viability (Caco-2 [15]; 10 nM) | cell viability (Caco-2 [15]; 100 nM) | cell viability (Caco-2 [15]; 1000 nM) | cell viability (Caco-2 [15]; 10000 nM)
1 | CC(=O)Oc1ccccc1C(=O)Oc1ccccc1C(=O)O [acetylsalicylsalicylic-acid] | 0 | 0 | 0 | 0 | 0 | > 10 µM | > 10 µM | > 10 µM | > 10 µM | > 10 µM | 101% | 101% | 102% | 95.9% | 99.9% | 96.1% | 96.8% | 103% | 104% | 106% | 100% | 106% | 100% | 108% | 92.4% | 95.3% | 78.8% | 99.3% | 97% | 91.9% | 103% | 96.1% | 101% | 101% | 103%
2 | COc1ccc(S(=O)(=O)Nc2c(C)cc(C)cc2C)cc1 | 0 | 0 | 0 | 0 | 0 | > 10 µM | > 10 µM | > 10 µM | > 10 µM | > 10 µM | 101% | 105% | 97.2% | 101% | 93.7% | 103% | 98.7% | 101% | 98.5% | 99.6% | 105% | 98% | 105% | 99.5% | 97.3% | 103% | 96.5% | 94.6% | 106% | 102% | 106% | 94.2% | 93.6% | 94.9% | 94.1%
3 | Cn1cc(-c2ccc(F)c(C(F)(F)F)c2)nc1C1CCN(c2ncnc3[nH]ncc23)CC1 | 0 | 0.7 | 0 | 0.4 | 0.2 | > 10 µM | > 10 µM | > 10 µM | > 10 µM | > 10 µM | 98.4% | 106% | 96.7% | 95.4% | 92% | 96.9% | 94.5% | 90.3% | 90.9% | 84.6% | 106% | 97.8% | 106% | 91.7% | 94.7% | 95.6% | 90.2% | 96.4% | 94.1% | 82.1% | 97% | 96.9% | 102% | 102% | 84.5%
4 | CC(/C=C1\SC(=S)N(CC(=O)O)C1=O)=C\c1ccccc1 [epalrestat] | 0 | 0 | 0 | 0 | 0 | > 10 µM | > 10 µM | > 10 µM | > 10 µM | > 10 µM | 98.3% | 95.4% | 94.7% | 101% | 102% | 99.4% | 98.1% | 98.4% | 103% | 100% | 100% | 96.4% | 102% | 95.6% | 106% | 102% | 96.8% | 96.7% | 97.8% | 107% | 92.6% | 87.2% | 95.8% | 104% | 98.8%
5 | CC(=O)O[C@H]1Cc2ccccc2N(C(N)=O)c2ccccc21 [eslicarbazepine-acetate] | 0 | 0 | 0 | 0 | 0 | > 10 µM | > 10 µM | > 10 µM | > 10 µM | > 10 µM | 96.9% | 99.7% | 96.3% | 98.9% | 98.2% | 97.5% | 93.6% | 95.2% | 96.7% | 101% | 90.4% | 85.9% | 95.9% | 93.8% | 101% | 98.9% | 98.4% | 108% | 102% | 111% | 104% | 99.9% | 91.3% | 95.5% | 89%
6 | N[C@@H](Cc1ccc(O)cc1)C(=O)O [plovamer-acetate] | 0 | 0 | 0 | 0 | 4.2 | > 10 µM | > 10 µM | > 10 µM | > 10 µM | > 10 µM | 106% | 102% | 96.3% | 104% | 95.5% | 99.1% | 94.8% | 102% | 93.3% | 97.6% | 87.2% | 94.4% | 93% | 90.1% | 80.1% | 97.9% | 98.5% | 105% | 104% | 102% | 119% | 83.9% | 84.4% | 90.7% | 92.1%
7 | CC(C)(C)CCN1C[C@@H]2[C@@H](CNC(=O)c3cc(Cl)cc(Cl)c3)[C@@H]2C1 [ML218] | 0 | 0 | 0 | 0 | 0 | > 10 µM | > 10 µM | > 10 µM | > 10 µM | > 10 µM | 101% | 101% | 103% | 100% | 91.8% | 99.7% | 97.9% | 96.8% | 102% | 93.1% | 95.2% | 108% | 96.3% | 96.9% | 92.7% | 108% | 109% | 104% | 99.6% | 90.7% | 104% | 97.4% | 97.4% | 92.8% | 88.6%
8 | CC(C)(C=O)Cc1cc(C(C)(C)C)c(O)c(C(C)(C)C)c1 | 0 | 0 | 0 | 0 | 0 | > 10 µM | > 10 µM | > 10 µM | > 10 µM | > 10 µM | 97.1% | 97.8% | 103% | 98.4% | 101% | 106% | 103% | 104% | 98.1% | 102% | 97.2% | 96.1% | 108% | 99.9% | 90.9% | 102% | 98.8% | 91.2% | 100% | 102% | 92.7% | 97.6% | 97.6% | 90.4% | 96.7%
9 | CC[N+](C)(CC)CCOC(=O)C(O)(c1ccccc1)C1CCCCC1 (stereo not given) [oxyphenonium] | 0 | 0 | 0 | 0.1 | 0 | > 10 µM | > 10 µM | > 10 µM | > 10 µM | > 10 µM | 95.9% | 97.2% | 100% | 99.4% | 96.8% | 97.8% | 100% | 98.8% | 98.3% | 96.6% | 90.4% | 94.1% | 98.1% | 86.2% | 99.4% | 92.9% | 106% | 97.5% | 99.2% | 87.2% | 88.6% | 98.4% | 88.7% | 101% | 95.6%
10 | NCCC(O)(P(=O)(O)O)P(=O)(O)O [pamidronate] | 0 | 0 | 0 | 0 | 0 | > 10 µM | > 10 µM | > 10 µM | > 10 µM | > 10 µM | 100% | 94.8% | 96.2% | 97.9% | 101% | 98.7% | 101% | 95.6% | 101% | 99% | 106% | 105% | 97.5% | 108% | 106% | 92.7% | 111% | 100% | 98.9% | 93.8% | 87.2% | 104% | 106% | 96% | 97.2%
11 | CC(=O)NCCNc1cc(Cl)nn2c(-c3cccc(S(=O)(=O)N(C)C)c3)c(C)nc12 [MI-14] | 0 | 0 | 4.4 | 0.8 | 0.9 | > 10 µM | > 10 µM | > 10 µM | > 10 µM | > 10 µM | 95.6% | 98% | 96.5% | 93.2% | 93.5% | 98.8% | 101% | 99.6% | 98.2% | 89.5% | 102% | 89.4% | 87.4% | 77.2% | 78.8% | 99.1% | 96.2% | 98.2% | 102% | 75.8% | 99.1% | 92.2% | 99.5% | 93.1% | 83.3%
